# pIC50: −log10 of the molar value.
# Legend:
# [1] = biological target: LIM domain kinase 1 (Homo sapiens) (UniProt P53667); assay: Selectivity interaction (KinomeScan (DiscoverX)) EUB0000666a LIMK1; conditions: at 10 µM
# [2] = Selectivity interaction (KinomeScan (DiscoverX)) EUB0000607a PKNB; conditions: at 10 µM
# [3] = biological target: Casein kinase I isoform gamma-2 (Homo sapiens) (UniProt P78368); conditions: at 10 µM
# [4] = biological target: T1, Serine/threonine-protein kinase D2 (Homo sapiens) (UniProt Q9BZL6); conditions: at 10 µM
# T1 sequence (whole entry): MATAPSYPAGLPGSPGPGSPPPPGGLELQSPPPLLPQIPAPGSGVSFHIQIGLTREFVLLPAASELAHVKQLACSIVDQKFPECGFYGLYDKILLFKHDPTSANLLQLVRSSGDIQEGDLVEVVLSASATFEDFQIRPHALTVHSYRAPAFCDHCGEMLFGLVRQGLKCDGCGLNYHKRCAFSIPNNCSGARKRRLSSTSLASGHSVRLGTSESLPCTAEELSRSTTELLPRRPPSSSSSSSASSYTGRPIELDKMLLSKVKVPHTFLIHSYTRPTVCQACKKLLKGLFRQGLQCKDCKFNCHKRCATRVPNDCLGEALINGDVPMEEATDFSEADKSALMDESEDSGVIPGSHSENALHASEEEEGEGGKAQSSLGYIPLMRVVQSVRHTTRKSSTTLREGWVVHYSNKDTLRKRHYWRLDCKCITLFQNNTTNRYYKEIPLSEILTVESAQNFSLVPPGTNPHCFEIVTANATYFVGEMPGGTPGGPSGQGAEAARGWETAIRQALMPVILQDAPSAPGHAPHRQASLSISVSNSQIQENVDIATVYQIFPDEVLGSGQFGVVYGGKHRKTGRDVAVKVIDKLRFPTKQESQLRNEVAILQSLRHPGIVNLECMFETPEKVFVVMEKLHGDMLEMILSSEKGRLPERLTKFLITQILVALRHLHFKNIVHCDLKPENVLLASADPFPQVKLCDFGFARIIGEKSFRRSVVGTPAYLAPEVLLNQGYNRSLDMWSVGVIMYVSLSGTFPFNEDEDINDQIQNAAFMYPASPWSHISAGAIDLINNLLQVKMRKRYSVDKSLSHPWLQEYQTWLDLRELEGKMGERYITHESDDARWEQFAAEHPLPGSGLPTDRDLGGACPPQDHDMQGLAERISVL
# [5] = biological target: DNA (cytosine-5)-methyltransferase 3A (Homo sapiens) (UniProt Q9Y6K1); assay: Selectivity interaction (Methyltransferase screen (radiometric assays, panel of 8 PRMTs, 21 protein lysine methyltransferases, 3 DNA methyltransferases, and one RNA methyltransferase)) EUB0000271b DNMT3A
# [6] = biological target: Dual specificity mitogen-activated protein kinase kinase 1 (Homo sapiens, UniProt Q02750); assay: Selectivity interaction (KinomeScan (DiscoverX)) EUB0000595a MAP2K1; conditions: at 10 µM
# [7] = Selectivity interaction (KinomeScan (DiscoverX)) EUB0000595a CDK2H; conditions: at 10 µM
# [8] = biological target: Fibroblast growth factor receptor 2 (Homo sapiens) (UniProt P21802); assay: Selectivity interaction (KinomeScan (DiscoverX)) EUB0000655a FGFR2; conditions: at 10 µM
# [9] = biological target: Serine/threonine-protein kinase PLK2 (Homo sapiens, UniProt Q9NYY3)
# [10] = biological target: AP2-associated protein kinase 1 (Homo sapiens, UniProt Q2M2I8); assay: Selectivity interaction (KinomeScan (DiscoverX)) EUB0000045b AAK1
# [11] = biological target: Protein kinase C delta type (Homo sapiens) (UniProt Q05655); assay: Selectivity interaction (KinomeScan (DiscoverX)) EUB0000045b PRKCD
# [12] = biological target: Acylglycerol kinase, mitochondrial (Homo sapiens) (UniProt Q53H12); assay: Selectivity interaction (Kinase panel (KiNativ target engagement assay in Jurkat cells)) EUB0001635a AGK; format: cell-based; conditions: Selectivity number of off-targets 0.0, Selectivity number of targets 233.0, Source Knowledge https://www.sciencedirect.com/science/article/pii/S2451945619300674?via%3Dihub, at 1 µM
# [13] = biological target: Bromodomain-containing protein 3 (Homo sapiens) (UniProt Q15059); assay: Selectivity interaction (Bromodomain panel (DSF asssay)) EUB0000270b BRD3
# [14] = biological target: Protein-tyrosine kinase 2-beta (Homo sapiens) (UniProt Q14289); assay: Selectivity interaction (KinomeScan (DiscoverX)) EUB0000229b PTK2B; conditions: at 10 µM
# [15] = biological target: Epithelial discoidin domain-containing receptor 1 (Homo sapiens) (UniProt Q08345); assay: Selectivity interaction (KinomeScan (DiscoverX)) EUB0000618a DDR1; conditions: at 10 µM
# [16] = biological target: Mitogen-activated protein kinase 1 (Homo sapiens, UniProt P28482); assay: Selectivity interaction (KinomeScan (DiscoverX)) EUB0000618a MAPK1; conditions: at 10 µM
# [17] = biological target: Ribosomal protein S6 kinase alpha-4 (Homo sapiens) (UniProt O75676); assay: Selectivity interaction (ActivX KiNativ screen (ex vivo kinase selectivity in human PBMCs)) EUB0001619a RPS6KA4; format: cell-based; conditions: PBMC, at 1 µM
# [18] = biological target: T2, Serine/threonine-protein kinase tousled-like 1 (Homo sapiens) (UniProt Q9UKI8); assay: Selectivity interaction (ActivX KiNativ screen (ex vivo kinase selectivity in human PBMCs)) EUB0001619a TLK1; format: cell-based; conditions: PBMC, at 1 µM
# T2 sequence (whole entry): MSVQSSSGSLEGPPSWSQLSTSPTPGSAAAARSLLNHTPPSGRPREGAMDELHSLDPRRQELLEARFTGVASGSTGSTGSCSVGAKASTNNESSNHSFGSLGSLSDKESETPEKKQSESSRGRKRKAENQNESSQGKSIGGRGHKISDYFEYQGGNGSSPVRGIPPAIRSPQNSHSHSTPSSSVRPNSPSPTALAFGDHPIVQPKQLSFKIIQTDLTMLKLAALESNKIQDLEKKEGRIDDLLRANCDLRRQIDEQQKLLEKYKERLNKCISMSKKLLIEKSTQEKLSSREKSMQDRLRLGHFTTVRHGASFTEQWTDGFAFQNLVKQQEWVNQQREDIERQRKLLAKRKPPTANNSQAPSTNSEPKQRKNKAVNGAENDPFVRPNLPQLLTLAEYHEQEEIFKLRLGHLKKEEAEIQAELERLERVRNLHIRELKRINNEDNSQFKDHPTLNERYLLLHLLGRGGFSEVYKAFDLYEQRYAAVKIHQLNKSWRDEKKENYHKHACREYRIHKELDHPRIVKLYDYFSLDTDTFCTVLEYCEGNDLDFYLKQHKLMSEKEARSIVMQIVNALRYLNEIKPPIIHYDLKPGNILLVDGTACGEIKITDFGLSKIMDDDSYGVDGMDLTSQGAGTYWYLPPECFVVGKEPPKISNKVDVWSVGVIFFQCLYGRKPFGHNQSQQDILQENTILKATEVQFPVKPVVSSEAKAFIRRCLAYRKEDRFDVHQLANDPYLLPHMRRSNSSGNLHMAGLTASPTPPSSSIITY
# Sequence of DNA (cytosine-5)-methyltransferase 3A (Homo sapiens) (Q9Y6K1 whole entry, looked up): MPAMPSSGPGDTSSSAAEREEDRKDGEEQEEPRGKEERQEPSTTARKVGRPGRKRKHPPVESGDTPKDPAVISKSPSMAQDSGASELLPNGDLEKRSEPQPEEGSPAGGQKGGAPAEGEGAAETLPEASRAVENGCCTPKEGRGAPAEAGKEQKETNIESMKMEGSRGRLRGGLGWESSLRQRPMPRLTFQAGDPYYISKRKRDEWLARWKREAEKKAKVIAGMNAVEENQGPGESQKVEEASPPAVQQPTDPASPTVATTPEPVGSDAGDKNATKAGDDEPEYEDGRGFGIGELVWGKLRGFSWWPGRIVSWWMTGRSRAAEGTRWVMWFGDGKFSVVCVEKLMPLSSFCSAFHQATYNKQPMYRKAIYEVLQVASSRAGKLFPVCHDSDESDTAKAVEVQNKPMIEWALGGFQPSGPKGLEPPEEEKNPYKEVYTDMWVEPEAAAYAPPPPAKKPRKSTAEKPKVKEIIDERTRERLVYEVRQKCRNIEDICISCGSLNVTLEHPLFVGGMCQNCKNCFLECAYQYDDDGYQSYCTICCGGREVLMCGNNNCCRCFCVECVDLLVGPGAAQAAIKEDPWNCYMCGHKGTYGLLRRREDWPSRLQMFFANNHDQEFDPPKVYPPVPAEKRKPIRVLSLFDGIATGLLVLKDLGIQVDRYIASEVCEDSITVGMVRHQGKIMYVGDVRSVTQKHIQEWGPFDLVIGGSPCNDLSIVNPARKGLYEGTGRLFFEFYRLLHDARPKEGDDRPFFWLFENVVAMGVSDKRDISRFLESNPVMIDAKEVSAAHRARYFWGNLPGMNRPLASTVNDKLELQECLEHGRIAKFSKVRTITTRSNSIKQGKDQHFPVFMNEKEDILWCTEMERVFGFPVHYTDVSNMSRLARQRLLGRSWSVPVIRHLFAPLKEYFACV
# Sequence of AP2-associated protein kinase 1 (Q2M2I8 whole entry, looked up): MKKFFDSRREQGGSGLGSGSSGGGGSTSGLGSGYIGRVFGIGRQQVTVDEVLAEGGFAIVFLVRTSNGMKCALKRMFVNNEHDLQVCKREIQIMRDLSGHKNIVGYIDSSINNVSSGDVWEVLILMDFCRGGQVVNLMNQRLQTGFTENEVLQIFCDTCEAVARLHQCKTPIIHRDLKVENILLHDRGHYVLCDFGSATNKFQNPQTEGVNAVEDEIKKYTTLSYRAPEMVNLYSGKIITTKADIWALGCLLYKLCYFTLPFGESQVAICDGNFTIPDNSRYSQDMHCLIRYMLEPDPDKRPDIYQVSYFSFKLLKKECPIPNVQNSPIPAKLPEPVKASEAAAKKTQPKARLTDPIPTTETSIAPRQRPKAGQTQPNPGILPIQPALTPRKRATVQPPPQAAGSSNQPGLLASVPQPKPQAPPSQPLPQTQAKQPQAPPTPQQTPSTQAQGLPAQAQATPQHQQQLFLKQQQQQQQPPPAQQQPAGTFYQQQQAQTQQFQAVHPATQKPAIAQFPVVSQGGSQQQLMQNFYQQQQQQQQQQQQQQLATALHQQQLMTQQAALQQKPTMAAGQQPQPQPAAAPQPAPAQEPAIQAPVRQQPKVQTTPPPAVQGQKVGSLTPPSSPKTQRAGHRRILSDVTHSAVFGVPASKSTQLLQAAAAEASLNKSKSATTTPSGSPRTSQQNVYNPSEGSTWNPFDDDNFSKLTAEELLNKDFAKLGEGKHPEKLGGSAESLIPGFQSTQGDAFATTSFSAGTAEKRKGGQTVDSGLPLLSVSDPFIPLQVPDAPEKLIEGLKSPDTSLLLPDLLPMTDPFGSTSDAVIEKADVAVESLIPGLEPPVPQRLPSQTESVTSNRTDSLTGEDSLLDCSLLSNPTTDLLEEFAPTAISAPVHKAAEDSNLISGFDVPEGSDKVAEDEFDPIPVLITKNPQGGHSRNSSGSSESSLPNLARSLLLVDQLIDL
# Sequence of Protein kinase C delta type (Homo sapiens) (Q05655 whole entry, looked up): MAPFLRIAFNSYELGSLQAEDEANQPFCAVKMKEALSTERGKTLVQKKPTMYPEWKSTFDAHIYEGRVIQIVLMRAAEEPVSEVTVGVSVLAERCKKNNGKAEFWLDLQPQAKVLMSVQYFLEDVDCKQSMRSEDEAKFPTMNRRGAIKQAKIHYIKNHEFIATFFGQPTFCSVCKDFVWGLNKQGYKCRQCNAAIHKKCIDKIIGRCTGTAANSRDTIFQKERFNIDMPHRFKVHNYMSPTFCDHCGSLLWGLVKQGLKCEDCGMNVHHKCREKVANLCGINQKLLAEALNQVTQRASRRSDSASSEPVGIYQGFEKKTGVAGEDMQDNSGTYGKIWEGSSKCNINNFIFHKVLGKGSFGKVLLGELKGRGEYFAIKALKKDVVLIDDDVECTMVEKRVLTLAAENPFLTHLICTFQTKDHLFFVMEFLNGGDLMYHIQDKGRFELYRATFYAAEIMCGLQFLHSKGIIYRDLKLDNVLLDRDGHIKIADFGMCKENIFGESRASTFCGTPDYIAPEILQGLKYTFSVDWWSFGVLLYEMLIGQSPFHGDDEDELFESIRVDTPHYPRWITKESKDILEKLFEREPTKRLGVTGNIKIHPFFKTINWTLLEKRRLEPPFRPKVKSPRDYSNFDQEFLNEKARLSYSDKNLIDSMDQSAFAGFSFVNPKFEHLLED
# Sequence of Casein kinase I isoform gamma-2 (Homo sapiens) (P78368 whole entry, looked up, canonical isoform): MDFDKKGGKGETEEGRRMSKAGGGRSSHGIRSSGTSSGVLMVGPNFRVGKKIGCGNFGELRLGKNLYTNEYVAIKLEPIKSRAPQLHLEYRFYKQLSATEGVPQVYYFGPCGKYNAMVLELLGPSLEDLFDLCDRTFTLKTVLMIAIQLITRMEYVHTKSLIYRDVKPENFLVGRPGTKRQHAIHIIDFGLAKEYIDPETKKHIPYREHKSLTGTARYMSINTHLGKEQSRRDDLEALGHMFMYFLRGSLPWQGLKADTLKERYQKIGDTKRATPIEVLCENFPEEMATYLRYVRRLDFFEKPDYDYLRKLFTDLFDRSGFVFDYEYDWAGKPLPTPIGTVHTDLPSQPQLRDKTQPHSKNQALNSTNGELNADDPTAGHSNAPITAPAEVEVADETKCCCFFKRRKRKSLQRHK
# Sequence of Epithelial discoidin domain-containing receptor 1 (Homo sapiens) (Q08345 whole entry, the tested form may be a part): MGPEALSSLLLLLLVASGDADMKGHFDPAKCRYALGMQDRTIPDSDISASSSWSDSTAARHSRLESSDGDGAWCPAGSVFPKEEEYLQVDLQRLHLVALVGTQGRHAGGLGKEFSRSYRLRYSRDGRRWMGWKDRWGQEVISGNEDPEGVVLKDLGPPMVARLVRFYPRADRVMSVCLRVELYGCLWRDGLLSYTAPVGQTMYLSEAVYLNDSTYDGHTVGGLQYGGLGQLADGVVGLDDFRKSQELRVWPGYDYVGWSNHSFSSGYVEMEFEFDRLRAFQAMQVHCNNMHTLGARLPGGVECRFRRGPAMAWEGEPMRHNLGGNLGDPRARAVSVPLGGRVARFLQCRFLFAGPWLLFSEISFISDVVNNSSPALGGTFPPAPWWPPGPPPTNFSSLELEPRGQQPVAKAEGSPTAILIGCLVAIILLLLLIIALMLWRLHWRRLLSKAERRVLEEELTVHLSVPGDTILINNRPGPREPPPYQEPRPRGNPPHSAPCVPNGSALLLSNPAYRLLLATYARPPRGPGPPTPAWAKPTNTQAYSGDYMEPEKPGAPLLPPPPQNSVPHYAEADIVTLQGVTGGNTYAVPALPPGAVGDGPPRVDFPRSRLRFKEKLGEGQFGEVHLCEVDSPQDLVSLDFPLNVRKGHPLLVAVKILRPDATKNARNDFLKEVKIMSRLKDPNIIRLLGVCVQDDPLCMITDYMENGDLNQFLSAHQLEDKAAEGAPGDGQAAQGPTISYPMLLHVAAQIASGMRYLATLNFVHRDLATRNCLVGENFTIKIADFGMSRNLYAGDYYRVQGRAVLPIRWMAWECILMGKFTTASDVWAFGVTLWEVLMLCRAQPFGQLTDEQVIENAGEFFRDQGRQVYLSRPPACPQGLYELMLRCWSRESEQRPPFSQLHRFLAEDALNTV
# Sequence of Mitogen-activated protein kinase 1 (P28482 whole entry): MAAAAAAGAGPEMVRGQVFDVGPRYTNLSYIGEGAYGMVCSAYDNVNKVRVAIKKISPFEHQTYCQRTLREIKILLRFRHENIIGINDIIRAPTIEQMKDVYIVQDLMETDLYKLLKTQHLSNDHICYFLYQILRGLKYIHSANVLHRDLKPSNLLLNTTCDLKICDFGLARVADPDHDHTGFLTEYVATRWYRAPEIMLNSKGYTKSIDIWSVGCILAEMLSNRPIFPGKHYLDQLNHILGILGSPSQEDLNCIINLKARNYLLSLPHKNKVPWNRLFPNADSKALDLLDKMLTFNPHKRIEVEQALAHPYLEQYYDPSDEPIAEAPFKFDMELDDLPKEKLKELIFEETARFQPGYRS
# Sequence of LIM domain kinase 1 (Homo sapiens) (P53667 whole entry, looked up, the tested form may be a part): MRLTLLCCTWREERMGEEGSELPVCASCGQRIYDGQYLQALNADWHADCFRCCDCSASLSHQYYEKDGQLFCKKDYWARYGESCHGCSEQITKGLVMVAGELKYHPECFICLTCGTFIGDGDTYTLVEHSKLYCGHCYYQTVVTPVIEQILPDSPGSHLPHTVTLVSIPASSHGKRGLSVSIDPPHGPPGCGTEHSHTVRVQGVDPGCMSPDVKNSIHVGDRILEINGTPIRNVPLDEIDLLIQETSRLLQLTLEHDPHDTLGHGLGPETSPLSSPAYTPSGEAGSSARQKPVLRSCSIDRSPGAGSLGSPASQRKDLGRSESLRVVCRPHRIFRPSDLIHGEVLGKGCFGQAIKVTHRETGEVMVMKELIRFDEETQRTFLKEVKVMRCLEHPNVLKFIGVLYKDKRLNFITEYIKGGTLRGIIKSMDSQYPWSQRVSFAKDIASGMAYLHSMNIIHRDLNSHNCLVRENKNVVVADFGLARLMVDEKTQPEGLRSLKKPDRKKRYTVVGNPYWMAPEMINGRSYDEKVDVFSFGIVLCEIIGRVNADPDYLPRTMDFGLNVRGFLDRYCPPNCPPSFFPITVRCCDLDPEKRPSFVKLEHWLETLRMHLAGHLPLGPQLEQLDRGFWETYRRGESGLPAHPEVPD
structure (smiles),measurement,setting,value
O=C(NOC[C@H](O)CO)c1ccc(F)c(F)c1Nc1ccc(I)cc1F,% of control,[1],68%
CNC(=O)Nc1ccc(-c2nc(N3CC4CCC(C3)O4)c3cnn(C4CCC5(CC4)OCCO5)c3n2)cc1,% of control,[2],94%
CCN(CC)CCCCNc1ncc2cc(-c3cc(OC)cc(OC)c3)c(NC(=O)NC(C)(C)C)nc2n1,% of control,[3],100%
same,% of control,[4],100%
Cc1cc(C)cc([C@@H]2c3cc(C)ccc3NC(=O)CN2C(=O)c2ccc(Br)s2)c1,% of activity,[5]; at 1 µM,99%
same,% of activity,[5]; at 10 µM,99%
COCC(=O)NC/C=C/c1ccc2ncnc(Nc3ccc(Oc4ccc(C)nc4)c(C)c3)c2c1 [CP-724714],% of control,[6],9.4%
same,% of control,[7],100%
CN(C)CCOc1ccc(-c2nc(-c3ccncc3)c(-c3ccc4c(c3)CC/C4=N\O)[nH]2)cc1,% of control,[8],100%
CCc1cccc(CC)c1NC(=O)c1nn(C)c2c1CCc1cnc(Nc3ccc(C(=O)NC4CCN(C)CC4)cc3OC(F)(F)F)nc1-2,pIC50,[9],< 5.00
C=CC(=O)Nc1cc(-n2c(=O)ccc3cnc4ccc(-c5ccc(NS(C)(=O)=O)cc5)cc4c32)ccc1C,% of control,[10]; at 1 µM,93%
same,% of control,[10]; at 10 µM,58%
same,% of control,[11]; at 1 µM,41%
same,% of control,[11]; at 10 µM,91%
C=CC(=O)Nc1ccc(C(=O)Nc2[nH]nc3c2CN(C(=O)N[C@H](CN(C)C)c2ccccc2)C3(C)C)cc1,% of engagement,[12],-3.9%
Cc1cc(CN)cc(C)c1-c1ncn(C)c1-c1cncn1C,dTM,[13],-3.97 K
COc1cc(N(C)c2ccnc3ccc(C(F)(F)F)cc23)cc(OC)c1OC,% binding,[14],95%
O[C@H]1CC[C@H](Nc2ncc3nc(Nc4c(F)cc(F)cc4F)n([C@H]4CCOC4)c3n2)CC1,% of control,[15],27%
same,% of control,[16],15%
N#Cc1cccc(-c2c[nH]c3ncnc(N4CCOCC4)c23)c1,% of inhibition,[17],20%
same,% of inhibition,[18],6%
